Key:
Type in all cases: cell-based, human
BT474 cells = assay: SLC6A14 and ER mRNA by RT-PCR after estradiol/antiestrogen treatment; conditions: 24 h
Experimental: (§1) FIGS. 2A-2C. Regulation of SLC6A14 expression by estrogen/ER. In FIG. 2A, ZR75.1 and BT474 cells were cultured for 5-6 passages in control medium (10% fetal bovine serum with phenol red) and phenol red-free medium (10% or 5% charcoal-stripped fetal bovine serum), and then the levels of ERa mRNA and SLC6A14 mRNA were determined by RT-PCR (P1, P2, P3, P4, P5, and P6 refer to passage numbers). In FIG. 2B, BT474 cells were treated with estradiol (10 nM) in the presence or absence of antiestrogens (1 μM) for 24 h, and then used for RT-PCR analysis of SLC6A14 mRNA and ERa mRNA (E2, estradiol; TAM, tamoxifen; 4-OH TAM, 4-hydroxytamoxifen; ICI 182780, FULVESTRANT™). […] Following the treatment, the reporter activity was measured. […]
(§2) Analysis of SLC6A14 as an estrogen/ER target. The influence of estrogen on SLC6A14 expression was assessed in ER-positive breast cancer cells (ZR75.1 and BT474) by culturing them for several passages in the absence of phenol red, and then monitoring the levels of SLC6A14 mRNA. […] Luciferase activity was measured in cell lysates using Luciferase Assay Reagent (Promega). β-galactosidase activity in the same cell lysates was used for normalization of the promoter activity for differences in transfection efficiency.

[1] = test system: SLC6A14 promoter in BT474 cells; assay: SLC6A14-promoter luciferase reporter assay; conditions: BT474, estradiol 10 nM, normalized with β-galactosidase activity
Experimental: as §1, §2

MCF7 cells = assay: SLC6A14 mRNA by RT-PCR in phenol red-free medium with or without estradiol; conditions: estradiol 10 nM, 24 h, versus absence of estradiol
Experimental: FIG. 11. Estrogen-dependent suppression of the efficacy of α-MT to induce ASNS and CHOP expression in MCF7 cells. MCF7 cells were cultured in a phenol red-free medium in the absence or presence of estradiol (E2, 10 nM) for 24 h and then treated without or with α-MT (2.5 mM, 24 h). The cells were then used for analysis of SLC6A14, asparagine synthetase (ASNS), and CHOP mRNA levels by RT-PCR. Hypoxanthine/guanine phosphoribosyltransferase-1 (HPRT1) mRNA levels were used as an internal control.
RT-PCR. Total RNA was isolated using TRIZOL™ (Invitrogen). 2 μg of RNA was reverse transcribed using the GeneAmp PCR System (Applied Biosystems, Branchburg, N.J.). PCR reaction was performed under optimal conditions specific for each of the primer pairs. GAPDH (glyceraldehyde-3-phosphate dehydrogenase) or HPRT1 (hypoxanthine/guanine phosphoribosyl transferase-1) were used as internal controls. PCR products were size-fractionated on agarose gel, stained with ethidium bromide and imaged using Alpha Imager (Santa Clara, Calif.). Densitometry was performed on PCR bands and normalized to the internal control. Normalized values were used to compare mRNA levels of target genes. Primers used for PCR were as follows.

C[C@]12CC[C@@H]3c4ccc(O)cc4CC[C@H]3[C@@H]1CC[C@@H]2O [estradiol]
SLC6A14 mRNA levels (BT474 cells; BT474, estradiol 10 nM): increased | expression of ER (BT474 cells; BT474, estradiol): did not have any noticeable effect | enhancement of SLC6A14-promoter (luciferase) activity [1]: 6 fold | expression of SLC6A14 (MCF7 cells): higher
